In patent US20060167056A1, “Polymorphs of {5-[3-(4,6-Difluoro-1H-benzoimidazol-2-yl)-1H-indazol-5-yl)-4-methyl-pyridin-3-ylmethyl}-ethyl-amine” (AGOURON PHARMACEUTICALS, INC., priority 2004, published 2006):
“Also recorded” adds a separate entry of the source.

Key:
Format in all cases: physicochemical
[1] = Stability study at 40° C. at 75% relative humidity (X-ray powder diffraction and DSC, initial vs 6 weeks)
Description: (§1) The present invention provides several polymorphic crystalline forms of Compound 1. Each crystalline form of the compound can be characterized by one or more of the following: X-ray powder diffraction pattern (i.e., X-ray diffraction peaks at various diffraction angles (2θ)), melting point onset (and onset of dehydration for hydrated forms) as illustrated by endotherms of a differential scanning calorimetry (DSC) thermogram, Raman spectra, thermal gravimetric analysis (TGA), solid state ^13C and ^19F nuclear magnetic resonance (SSNMR) spectrum, aqueous solubility, light stability under International Conference on Harmonization (ICH) high intensity light conditions, and physical and chemical storage stability.
(§2) Polymorph Form A is a meta-stable solvate form of Compound 1. Form A is chemically stable at 40° C. at 75% relative humidty for at least 6 weeks. […] The 6 week DSC thermogram, FIG. 2G, indicates an endotherm onset at 257° C. at a scan rate of 10° C./min.
(§3) Polymorph Form B is physically and chemically stable at 40° C. at 75% relative humidity for at least six weeks.
FIG. 2A is an X-ray powder diffractogram of polymorph Form B of Compound 1. Form B was further characterized by Raman spectra, ^13C solid state NMR, ^19F solid state NMR, DSC profiling and TGA analysis.

[2] = DSC profiling, meta-stability of the polymorphic form; conditions: DSC thermogram
Description: Different polymorphic forms of Compound 1 were also distinguished using differential scanning calorimetry (DSC). DSC measures the difference in heat energy between a solid sample and an appropriate reference with an increase in temperature. DSC thermograms are characterized by endotherms (indicating energy uptake) and also by exotherms (indicating energy release), typically as the sample is heated. The DSC thermographs were obtained using a TA Instrument DSC Q-1000 instrument at a scan rate of 10° C./min over a temperature range of 25-300° C. Samples were weighed into aluminum crucibles that were sealed and punctured with a single hole. The extrapolated onset of melting temperature and, where applicable, the onset of dehydration/desolvation temperature, were also calculated. […] For any given example, the observed endotherms may also differ from instrument to instrument; however, it will generally be within the ranges defined herein provided the instruments are calibrated similarly.
as §2
FIG. 3A is an X-ray powder diffractogram of polymorph Form C of Compound 1. […]

Aqueous solubility = experiment: Aqueous solubility
Description: as §1, §3

| chemically stable, duration [1] | physical stability, initial X-Ray powder diffraction data vs 6 week stability X-ray data ([1]; 6 weeks, XRPD) | stability class of the polymorphic form [2] | solubility (Aqueous solubility; aqueous, aqueous buffer, pH=4, read-out: initial aqueous solubility) | behaviour of the aqueous solution after time (Aqueous solubility; pH=4, after time) | SMILES | polymorph conversion, initial DSC thermogram vs 6 week DSC thermogram ([1]; 6 weeks, DSC scan rate 10° C./min) |
| --- | --- | --- | --- | --- | --- | --- |
| at least 6 weeks | appears to be physically stable | meta-stable |  |  | CCNCc1cncc(-c2ccc3[nH]nc(-c4nc5c(F)cc(F)cc5[nH]4)c3c2)c1C [Form A, {5-[3-(4,6-Difluoro-1H-benzoimidazol-2-yl)-1H-indazol-5-yl]-4-methyl-pyridin-3-ylmethyl}-ethyl-amine] | small conversion of Form A to Form B; also recorded: a small amount of Form A had been converted to Form B |
| at least six |  |  | > 20 mg/mL | the solution has been seen to gel | CCNCc1cncc(-c2ccc3[nH]nc(-c4nc5c(F)cc(F)cc5[nH]4)c3c2)c1C [Form B, {5-[3-(4,6-Difluoro-1H-benzoimidazol-2-yl)-1H-indazol-5-yl]-4-methyl-pyridin-3-ylmethyl}-ethyl-amine] |  |
|  |  | meta-stable |  |  | CCNCc1cncc(-c2ccc3[nH]nc(-c4nc5c(F)cc(F)cc5[nH]4)c3c2)c1C [Form C, {5-[3-(4,6-Difluoro-1H-benzoimidazol-2-yl)-1H-indazol-5-yl]-4-methyl-pyridin-3-ylmethyl}-ethyl-amine] |  |
